Assay results as given in patent US5449612A, “Process for identifying candida by means of chromogenic substances” (Serbio, priority 1990, dated 1995).

Legend:
C. zeylanoides [1] = test: Diagnosis from isolated colonies on gelose 2/5; type: cell-based, Candida zeylanoides; conditions: Table VI; further: key: -: none; +: weak; ++: moderate; +++: intense; ++++: very intense
C. parapsilosis [2] = test: Diagnosis from non-isolated colonies on gelose 2/5; type: cell-based, Candida parapsilosis; further: key: -: none; +: weak; ++: moderate; +++: intense; ++++: very intense
C. krusei [3] = test: Diagnosis from isolated colonies on gelose 2/5; type: cell-based, Candida krusei
Experimental: (§1) According to the afore-mentioned best mode of carrying out the invention, a culture medium containing the following ingredients is prepared; it is called gelose 2 below and is buffered to pH 6.0.
(§2) According to the afore-mentioned best mode of carrying out the invention, a culture medium containing the following ingredients is prepared; it is called gelose 5 below and is buffered to pH 6.0.
Several isolated strains of C. albicans, C. tropicalis, C. krusei, C. guillermondii, C. pseudotropicalis, C. parapsilosis, C. zeylanoides, T. glabrata and Trichosporon cutaneum were inoculated and incubated on the media of Examples 1 to 5. […] Part of the results obtained has been collated in Table VI below, where the TTC column relates to results of tests undertaken separately on a standard gelose medium containing TTC.
Several isolated strains of C. albicans, C. tropicalis, C. krusei, C. guillermondii and T. glabrata were inoculated and incubated on the media of Example 2 [containing either the substrate N-Ac-β-D-galactosaminide-PNP of the prior art, or the substrates H-L-PropNA.AcOH (specific for C. albicans), EM-L-Phg-L-ArgpNA.AcOH (specific for T. glabrata) and H-Gly-L-Pro-L-Arg-pNA.2AcOH (specific for C. krusei)]and of Example 5 (containing the substrate H-L-Pro-pNA.AcOH).

Cr. neoformans = test: Diagnosis from non-isolated colonies on gelose 2/5; type: cell-based, Cryptococcus neoformans; conditions: Table VIII; further: key: -: none; +: weak; ++: moderate; +++: intense; ++++: very intense
T. glabrata [4] = test: Diagnosis from non-isolated colonies on gelose 2/5; type: cell-based, Torulopsis glabrata; further: key: -: none; +: weak; ++: moderate; +++: intense; ++++: very intense
C. albicans [5] = test: Diagnosis from non-isolated colonies on gelose 2/5; type: cell-based, Candida albicans
Candida albicans = test: Tests on substrates against Candida albicans, colour reading on buffered gelose; type: cell-based; set-up: key to Specificity: interference with C. albicans: (a): interference with C. albicans (++++); (b): interference with C. krusei (++); (c): interference with C. tropicalis (++)
Tr. cutaneum [6] = test: Diagnosis from isolated colonies on gelose 2/5; type: cell-based, Trichosporon cutaneum; conditions: Table VI; further: key: -: none; +: weak; ++: moderate; +++: intense; ++++: very intense
C. cerevisiae = test: Diagnosis from non-isolated colonies on gelose 5; type: cell-based
Experimental: as §2
(§3) A mixture of several non-isolated strains of C. albicans, C. tropicalis, C. krusei, C. guillermondii, C. pseudotropicalis, C. parapsilosis, C. zeylanoides, C. ciferii, C. cerevisiae, Torulopsis glabrata and Trichosporon cutaneum was inoculated and incubated on the culture media according to Example 5, containing the substrate N-Ac-β-D-galactosaminide-PNP of the prior art or the substrate H-Pro-pNA.AcOH according to the invention.

C. pseudotropicalis [7] = test: Diagnosis from isolated colonies on gelose 2/5; type: cell-based, Candida pseudotropicalis; conditions: Table VI; further: key: -: none; +: weak; ++: moderate; +++: intense; ++++: very intense
C. zeylanoides [8] = test: Diagnosis from non-isolated colonies on gelose 5; type: cell-based, Candida zeylanoides; conditions: Table IX, 1 strain, gelose 5, cycloheximide; further: key: -: none; +: weak; ++: moderate; +++: intense; ++++: very intense
C. tropicalis [9] = test: Diagnosis from isolated colonies on gelose 2/5; type: cell-based, Candida tropicalis; conditions: isolated colonies
Candida guillermondii = test: Tests on substrates against Candida guillermondii; set-up: Reading at 24 h: key to the marks not given beside the values; conditions: Table V
C. guillermondii [10] = test: Diagnosis from non-isolated colonies on gelose 2/5; type: cell-based, Candida guillermondii; further: key: -: none; +: weak; ++: moderate; +++: intense; ++++: very intense
C. albicans [11] = test: Diagnosis from isolated colonies on gelose 2/5; type: cell-based, Candida albicans; conditions: isolated colonies; further: key: -: none; +: weak; ++: moderate; +++: intense; ++++: very intense
C. ciferii = test: Diagnosis from non-isolated colonies on gelose 5; type: cell-based; conditions: Table IX, 1 strain, gelose 5, cycloheximide; further: key: -: none; +: weak; ++: moderate; +++: intense; ++++: very intense
Tr. cutaneum [12] = test: Diagnosis from non-isolated colonies on gelose 2/5; type: cell-based, Trichosporon cutaneum
C. guillermondii [13] = test: Diagnosis from isolated colonies on gelose 2/5; type: cell-based, Candida guillermondii; conditions: Table VI; further: key: -: none; +: weak; ++: moderate; +++: intense; ++++: very intense
T. glabrata [14] = test: Diagnosis from isolated colonies on gelose 2/5; type: cell-based, Torulopsis glabrata; conditions: isolated colonies; further: key: -: none; +: weak; ++: moderate; +++: intense; ++++: very intense
C. parapsilosis [15] = test: Diagnosis from isolated colonies on gelose 2/5; type: cell-based, Candida parapsilosis; conditions: Table VI; further: key: -: none; +: weak; ++: moderate; +++: intense; ++++: very intense
C. pseudotropicalis [16] = test: Diagnosis from non-isolated colonies on gelose 2/5; type: cell-based, Candida pseudotropicalis; further: key: -: none; +: weak; ++: moderate; +++: intense; ++++: very intense
C. tropicalis [17] = test: Diagnosis from non-isolated colonies on gelose 2/5; type: cell-based, Candida tropicalis; further: key: -: none; +: weak; ++: moderate; +++: intense; ++++: very intense
C. krusei [18] = test: Diagnosis from non-isolated colonies on gelose 2/5; type: cell-based, Candida krusei
Experimental: as §1, §2
A mixture of several non-isolated strains of C. albicans, C. tropicalis, C. krusei, C. guillermondii, C. pseudotropicalis, C. parapsilosis, Cryptococcus neoformaas, Torulopsis glabrata and Trichosporon cutaneum was inoculated and incubated on the culture media according to Examples 1 to 5, containing the substrate N-Ac-β-D-galactosaminide-PNP of the prior art or the substrate H-Pro-pNA.AcOH according to the invention. The results, which were obtained particularly with geloses 2 and 5, are collated in Table VIII below, where the TTC column relates to results of tests undertaken separately on a standard gelose medium containing TTC.
as §3

[19] = gelose 5 (maltose, cycloheximide)
[20] = Table IX, 1 strain, gelose 5, cycloheximide
[21] = Table VIII, 2 strains, gelose 2
[22] = Table VIII, gelose 5 (maltose, cycloheximide)
[23] = Table VI, gelose 5 (maltose, cycloheximide)
[24] = Table VII, gelose 5 with cycloheximide
[25] = Table IX, 2 strains, gelose 5, cycloheximide

CC(=O)O.O=C(Nc1ccc([N+](=O)[O-])cc1)[C@@H]1CCCN1 [H-L-Pro-pNA.AcOH]
(a): Specificity: nonspecific for the strains of Candida albicans (Candida albicans; Table I) | Specificity: interference with C. albicans (Candida albicans; Table V)
-: Reading at t = 24 h (C. zeylanoides [1]; [19]) | Reading at t = 24 h (C. parapsilosis [2]; [20]) | Reading at t = 24 h (C. parapsilosis [2]; [22]) | Reading at t = 24 h (C. krusei [3]) | Reading at t = 24 h (Cr. neoformans; 1 strain, gelose 2) | Reading at t = 24 h (Cr. neoformans; [19]) | Reading at t = 24 h (T. glabrata [4]; Table IX, 8 strains, gelose 5, cycloheximide) | Reading at t = 24 h (T. glabrata [4]; Table VIII, 8 strains, gelose 2) | Reading at t = 24 h (T. glabrata [4]; [22]) | Reading at t = 24 h (Tr. cutaneum [6]; [19]) | Reading at t = 24 h (C. cerevisiae) | Reading at t = 24 h (C. pseudotropicalis [7]; 2 strains, gelose 2) | Reading at t = 24 h (C. pseudotropicalis [7]; [19]) | Reading at t = 24 h (C. zeylanoides [8]) | Reading at t = 24 h (C. tropicalis [9]; Table VI, 4 strains, gelose 2) | Reading at t = 24 h (C. tropicalis [9]; [23]) | Reading at t = 24 h (C. tropicalis [9]; Table VII, 9 strains, gelose 2) | Reading at t = 24 h (C. tropicalis [9]; [24]) | Reading at t = 24 h (C. guillermondii [10]; [20]) | Reading at t = 24 h (C. guillermondii [10]; [22]) | Reading at t = 24 h (C. ciferii) | Reading at t = 24 h (Tr. cutaneum [12]; [25]) | Reading at t = 24 h (Tr. cutaneum [12]; [22]) | Reading at t = 24 h (C. guillermondii [13]; [19]) | Reading at t = 24 h (T. glabrata [14]; Table VI, 4 strains, gelose 2) | Reading at t = 24 h (T. glabrata [14]; [23]) | Reading at t = 24 h (T. glabrata [14]; Table VII, 9 strains, gelose 2) | Reading at t = 24 h (T. glabrata [14]; [24]) | Reading at t = 24 h (C. parapsilosis [15]; [19]) | Reading at t = 24 h (C. pseudotropicalis [16]; [25]) | Reading at t = 24 h (C. pseudotropicalis [16]; Table VIII, 1 strain, gelose 2) | Reading at t = 24 h (C. pseudotropicalis [16]; [22]) | Reading at t = 24 h (C. tropicalis [17]; [20]) | Reading at t = 24 h (C. tropicalis [17]; Table VIII, 1 strain, gelose 2) | Reading at t = 24 h (C. tropicalis [17]; [22]) | Reading at t = 24 h (C. krusei [18])
++: Reading at t = 24 h (C. zeylanoides [1]; 1 strain, gelose 2) | Reading at t = 24 h (Tr. cutaneum [12]; [21])
++++: Reading at t = 24 h (C. albicans [5]; Table IX, 89 strains, gelose 5, cycloheximide) | Reading at t = 24 h (C. albicans [5]; Table VIII, 13 strains, gelose 2) | Reading at 24 h (Candida albicans; Table I, medium pH 6.0, YNB, glucose, agar, gentamycin, coloration or fluorescence) | Reading at 24 h (Candida guillermondii) | Reading at t = 24 h (C. albicans [11]; Table VI, 10 strains, gelose 2) | Reading at t = 24 h (C. albicans [11]; [23]) | Reading at t = 24 h (C. albicans [11]; Table VII, 6 strains, gelose 2) | Reading at t = 24 h (C. albicans [11]; [24])
+: Reading at t = 24 h (Tr. cutaneum [6]; 1 strain, gelose 2)
+++: Reading at t = 24 h (C. parapsilosis [2]; [21]) | Reading at t = 24 h (C. albicans [5]; [22]) | Reading at t = 24 h (C. guillermondii [10]; Table VIII, 1 strain, gelose 2) | Reading at t = 24 h (C. guillermondii [13]; 2 strains, gelose 2) | Reading at t = 24 h (C. parapsilosis [15]; 5 strains, gelose 2)
